US20070009531A1 (priority 2005, published 2007)
“Also recorded” adds a separate entry of the source.

Key:
[1] = combination of verapamil and VAD (vincristine, doxorubicin, dexamethasone); cited from earlier work
[2] = pharmacokinetic interaction with co-administered oncolytics in preclinical models; assay type: in vivo; conditions: several oncolytics
[3] = system: P-gp-associated resistance; assay: in vivo activity in preclinical animal studies
AML = conditions: older patients, Mylotarg alone, registration trials; cited from earlier work

For `COc1ccc(CCN(C)CCCC(C#N)(c2ccc(OC)c(OC)c2)C(C)C)cc1OC` (stereo not shown) [verapamil], the patients responded [1] is listed as 5 of 22.

In the case of `O[C@@H](COc1cccc2ncccc12)CN1CCN([C@@H]2c3ccccc3[C@@H]3[C@H](c4ccccc42)C3(F)F)CC1` [zosuquidar], the “pharmacokinetic interaction with co-administered chemotherapy” value [2] is reported as “no pharmacokinetic interaction; also recorded: minimal pharmacokinetic (PK) interactions” and the in vivo activity [3] is reported as “good in vivo activity”.

For gemtuzumab ozogamicin [Mylotarg], the “rate of complete remission (CR+CRp)” value (AML) is given as 26%.
